Read-outs that look alike come from different tables or passages of the source.
Legend:
TA 98 = experiment: Ames Test, strain TA 98
Excerpt: (§1) The test used amino acid-dependent strains of Salmonella typhimurium and Escherichia coli to detect point mutations which involved substitution, addition or deletion of one or a few DNA base pairs. Point mutations were introduced in the histidine (Salmonella typhimurium) or the tryptophan (Escherichia coli) operon, making the tester strains incapable of producing these amino acids. The test detected mutations that revert the mutations present in the bacteria, restoring the functional capability to synthesize histidine or tryptophan. The revertant bacteria were detected by the ability to grow in the absence of the amino acid required by the parent test strain. A mutagenic potential of a tested compound was assessed by exposing these bacterial strains to different concentrations of the compounds and estimating number of revertant colonies grown in the absence (trace quantities) of the amino acid.
(§2) DMSO was used as the negative control.
(§3) For each experiment, tester strain cultures were grown overnight in Oxoid nutrient broth #2 at 37° C. with shaking at 235 rpm to a density of 1-2×10^9 colony forming units/mL (OD540˜2).
(§4) The tester strain (10 μL of night culture) was mixed with the test agent (10 µL of the DMSO stock) and GM liquid medium (30 μL). The obtained mixture was incubated at room temperature for 5 min in a sterile 1.5 mL tube. Then, to the tube was added 200 μL of molten top agar stored at 44° C. to prevent solidifying. After mixing with a pipette, the mixture was poured onto the surface of a GM agar plate (2.0 mL of GM agar per plate). After solidifying the top agar, the plate was inverted and incubated at 37° C. for 48 hours. Then, results were expressed as number of revertant colonies per plate.

[1] = Caco-2 A-B permeability assay; assay type: in vitro ADME; details: human
Description: (§5) Caco-2 cells were cultivated in 75 cm^2 flasks to 80-90% of confluence according to the ATCC and Millipore recommendations (Millipore protocol note PC1060EN00P) in a humidified atmosphere at 37° C. and 5% CO2. Cells were detached with Trypsin/EDTA solution and re-suspended in the cell culture medium to a final concentration of 2×10^5 cells/mL. 500 μL of the cell suspension was added to each well of an HTS 24-multiwell insert system and 35 mL of prewarmed complete medium was added to the feeder tray. Caco-2 cells were incubated in the multiwell insert system for 10 days before the transport experiments. The medium in the filter plate and feeder tray was changed every other day. After 10 days of cell growth, the integrity of the monolayer was verified by measuring the transepithelial electrical resistance (TEER) for every well using the Millicell-ERS system ohm meter. […] The 24-well insert plate was removed from its feeder plate and placed in a new sterile 24-well transport analysis plate. The medium was aspirated and inserts washed with PBS.
(§6) To determine the rate of drug transport in apical (A) to basolateral (B) direction, 300 μL of the test compound solution in buffer (HBSS, 5.6 mM glucose, 10 mM HEPES, pH=7.4) was added into the filter wells and 1000 μL of the same buffer was added to wells in the transport analysis plate. The plates were incubated for 90 min. at 37° C. with shaking at 50 rpm. 75 μL aliquots were taken from the apical and basolateral compartment for LC-MS/MS analysis. All samples for LC-MS/MS analysis were extracted by acetonitrile (×2 volume) followed by protein sedimentation by centrifuging at 10000 rpm for 10 minutes. Supernatants were analyzed using the HPLC system coupled with a tandem mass spectrometer.
(§7) The apparent permeability (Papp) was calculated for the Caco-2 permeability assay using the following equation: Papp=(VA/((Area)×(Time))×([drug]acc/[drug]initial,d), where: […]

Caco-2 cells = experiment: Caco-2 A-B permeability assay; assay type: in vitro ADME; details: A-B, 90 min, pH=7.4
Description: as §5, §6, §7

FLAG-Parkin C431S = FLAG-Parkin C431S (Homo sapiens (Human), UniProt O60260, C431S); experiment: Ub-charging of FLAG-Parkin C431S (MSD assay); assay type: cell-based; details: 5 μM, 2 h before 3.5 μM CCCP
Description: Ubiquitin charging of Parkin was monitored by ELISA-like MesoScale Discovery assay that uses electrochemiluminescence. Plates were coated with Flag antibody and incubated with lysates from 3×FLAG-Parkin C431S cells that had been pretreated for 2 h with 5 μM of Compounds 1, 2, 3, 4, and 31 or DMSO (left, −) before incubating them for another 2 h with (+) or without (−) low-dose (3.5 μM) CCCP. Positive control (PC) cells were treated with 10 μM CCCP. After washing, pS65-Ub antibody was added together with a sulfo-tagged anti-rabbit antibody. Values were normalized to the PC (10 μM CCCP) and negative control (−). Statistical analysis was performed by one-way ANOVA with Tukey's post-hoc test. ****, p<0.0001.
For ELISA assays, 96-well standard bind plates (Mesoscale Discovery) were coated with antibodies (FLAG, Sigma, F3165 or pSer65-Ub, both 1:250) in bicarbonate buffer (15 mM Na2CO3, 35 mM NaHCO3, pH 9.4) overnight and blocked with 5% BSA in TBS containing 0.02% Tween-20 (TBST). For Parkin Ub-charging, cell lysates were prepared in RIPA buffer (50 mM Tris pH 8.0, 150 mM NaCl, 1% NP-40, 0.5% deoxycholate, 0.1% sodium dodecyl sulphate (SDS)). 25 μg of lysates were added to the plates and incubated for 2 h. To quantify pSer65-Ub, cell lysates were prepared in NP-40 buffer (50 mM Tris pH 7.6, 150 mM NaCl, and 0.5% NP-40) and diluted to 0.18% NP-40 with 1% BSA in TBST. 6.25 μg of lysates were added to the plates overnight and incubated at 4° C. After primary antibody incubation, plates were washed and incubated with mouse detection antibodies (Ub, CST, #3933 or Ub, Millipore, MAB 150 both 1:250) for 1 h at RT. Secondary sulfo-tag conjugated antibodies were incubated for 1 h in 1% BSA/TBST before plates were measured in 2× READ buffer using a Mesoscale Discovery Sector Imager 2400 (both Mesoscale Discovery).

TA 1537 = experiment: Ames Test, strain TA 1537
Excerpt: as §1, §2, §3, §4

[2] = TA 98, 200 μM, baseline = mean of negative control + SD
[3] = Caco-2, pH 7.4, A-B, read-out: Permeability (individual replicates 1, 2)
[4] = Caco-2, pH 7.4, A-B, read-out: Permeability Mean
[5] = TA 1537, 50 μM (row printed 100; conc. column shifted)
[6] = TA 1537, 100 μM (row printed 200; conc. column shifted)
[7] = TA 1537, 200 μM (row printed 300; conc. column shifted)

Row | Compound | Fold increase (over baseline) (TA 98; TA 98, 50 μM) | Mean ± SD (TA 98; TA 98, 50 μM) | Fold increase (over baseline) (TA 98; TA 98, 100 μM) | Mean ± SD (TA 98; TA 98, 100 μM) | Mean ± SD (TA 98; TA 98, 200 μM) | Fold increase (over baseline) (TA 98; [2]) | Papp at 90 min [1, 3] [×10⁻⁶ cm/s] | Papp at 90 min [1, 4] [×10⁻⁶ cm/s] | Permeability (individual replicates 1, 2) (Caco-2 cells) | Ub-charging of FLAG-Parkin C431S (MSD assay) (FLAG-Parkin C431S) | Fold increase (over baseline) (TA 1537; [5]) | Mean ± SD (TA 1537; [5]) | Fold increase (over baseline) (TA 1537; [6]) | Mean ± SD (TA 1537; [6]) | Fold increase (over baseline) (TA 1537; [7]) | mutagenic activity (TA 98; TA 98, 200 μM) | Papp at 90 min ([1]; Caco-2, A-B, pH=7.4, read-out: Permeability (individual replicates 1, 2)) [×10⁻⁶ cm/s]
1 | Cc1nc2c(c(N3CCCN(Cc4ccccc4)CC3)n1)CCCC2 [Compound 31] | 0.2 | 0.5 ± 0.7 revertant colonies per plate | 0.3 | 1 ± 0 revertant colonies per plate | 1 ± 1.41 revertant colonies per plate | 0.3 | 52.8 | 49 | 45.2 10^−6 cm/s | enhanced Ub-charging | 0.45 | 1 ± 1.41 revertant colonies per plate | 0 | 0 ± 0 revertant colonies per plate | 0.23 |  | 
2 | CC(C)(C)Sc1ccc(NC(=O)Cn2ccnc2)cc1 [Compound 3] | 0.46 | 1.5 ± 0.7 revertant colonies per plate | 0.2 | 0.5 ± 0.7 revertant colonies per plate | >1000 revertant colonies per plate | >312 | 39.5 | 40.6 | 41.7 10^−6 cm/s | enhanced Ub-charging | 0.45 | 1 ± 1.41 revertant colonies per plate | 0.23 | 0.5 ± 0.7 revertant colonies per plate | 5.68 | mutagenic activity | 
3 | O=C(Cn1cnc2c1CCCC2)Nc1ccc(-c2ccccc2)cc1 [Compound 1] | 0.46 | 1.5 ± 0.7 revertant colonies per plate | 0.2 | 0.5 ± 0.7 revertant colonies per plate | 0 ± 0 revertant colonies per plate | 0 | 8.3 | 10.2 | 12.1 10^−6 cm/s | enhanced Ub-charging | 0.23 | 0.5 ± 0.7 revertant colonies per plate | 0.45 | 1 ± 1.41 revertant colonies per plate | 0.45 |  | 
4 | O=C(Cn1ccnc1-c1ccccn1)Nc1ccc(-c2ccccc2)cc1 [Compound 4] | 0.46 | 1.5 ± 0.7 revertant colonies per plate | 0 | 0 ± 0 revertant colonies per plate | 0 ± 0 revertant colonies per plate | 0 | 14.6 | 15.3 |  | enhanced Ub-charging | 0.23 | 0.5 ± 0.7 revertant colonies per plate | 0 | 0 ± 0 revertant colonies per plate | 0.23 |  | 15.9
5 | CC(C)c1nccn1CC(=O)Nc1ccc(-c2ccccc2)cc1 [Compound 2] | 0.3 | 1 ± 1.41 revertant colonies per plate | 0.2 | 0.5 ± 0.7 revertant colonies per plate | 0.5 ± 0.7 revertant colonies per plate | 0.2 | 17.9 | 18.2 | 18.5 10^−6 cm/s | enhanced Ub-charging | 0.68 | 1.5 ± 2.12 revertant colonies per plate | 0.45 | 1 ± 0 revertant colonies per plate | 0.23 |  | 
